Source: the NIST ThermoML archive (doi:10.1016/j.fluid.2010.01.020)
± gives the expanded uncertainty stated by the source.

Legend:
[1] = xn = mol fraction of the nth substance listed; conditions: 101 kPa, Liquid, Vibrating tube method
[2] = Molar enthalpy of transition or fusion; conditions: Crystal; DSC
[3] = Crystal

## O [water] + CCn1cc[n+](C)c1.N#C[S-]
[1]; 308.15 K, x2 = 0
  mass density: 992.03 ± 0.11 kg/m3
[1]; 318.15 K, x2 = 0
  mass density: 987.02 ± 0.11 kg/m3
[1]; 328.15 K, x2 = 0
  mass density: 981.69 ± 0.11 kg/m3
[1]; 338.15 K, x2 = 0
  mass density: 977.03 ± 0.11 kg/m3
[1]; 348.15 K, x2 = 0
  mass density: 971.75 ± 0.11 kg/m3

## CCn1cc[n+](C)c1.Cc1ccc(S(=O)(=O)[O-])cc1 [1-ethyl-3-methylimidazolium 4-methylbenzenesulfonate]
[2]
  Molar enthalpy of transition or fusion: 4.9 ± 0.115 kcal/mol
[3]; DTA
  Normal melting temperature: 49.2 ± 0.4 °C
[3]; Solid-Liquid Equilibrium
  Normal melting temperature: 53.5 ± 0.4 °C

## CCn1cc[n+](C)c1.N#C[S-] [1-ethyl-3-methylimidazolium thiocyanate] + O
[1]; 298.15 K, x1 = 0.0248
  mass density: 1016 ± 0.63 kg/m3
[1]; 298.15 K, x1 = 0.0635
  mass density: 1036.86 ± 0.42 kg/m3
[1]; 298.15 K, x1 = 0.1377
  mass density: 1062.14 ± 0.3 kg/m3
[1]; 298.15 K, x1 = 0.2145
  mass density: 1077.88 ± 0.21 kg/m3
[1]; 298.15 K, x1 = 0.3381
  mass density: 1092.51 ± 0.23 kg/m3
[1]; 298.15 K, x1 = 0.4198
  mass density: 1098.72 ± 0.27 kg/m3
[1]; 298.15 K, x1 = 0.5599
  mass density: 1105.92 ± 0.4 kg/m3
[1]; 298.15 K, x1 = 0.6524
  mass density: 1109.2 ± 0.51 kg/m3
[1]; 298.15 K, x1 = 0.7369
  mass density: 1111.59 ± 0.63 kg/m3
[1]; 298.15 K, x1 = 0.8256
  mass density: 1113.68 ± 0.77 kg/m3
[1]; 298.15 K, x1 = 0.9263
  mass density: 1115.64 ± 0.94 kg/m3
[1]; 298.15 K, x1 = 1
  mass density: 1116.84 ± 1.1 kg/m3
[1]; 308.15 K, x1 = 0.0248
  mass density: 1010.56 ± 0.62 kg/m3
[1]; 308.15 K, x1 = 0.0635
  mass density: 1031.47 ± 0.4 kg/m3
[1]; 308.15 K, x1 = 0.1377
  mass density: 1056.21 ± 0.29 kg/m3
[1]; 308.15 K, x1 = 0.2145
  mass density: 1071.45 ± 0.21 kg/m3
[1]; 308.15 K, x1 = 0.3381
  mass density: 1086.08 ± 0.23 kg/m3
[1]; 308.15 K, x1 = 0.4198
  mass density: 1092.33 ± 0.26 kg/m3
[1]; 308.15 K, x1 = 0.5599
  mass density: 1099.59 ± 0.4 kg/m3
[1]; 308.15 K, x1 = 0.6524
  mass density: 1102.99 ± 0.51 kg/m3
[1]; 308.15 K, x1 = 0.7369
  mass density: 1105.42 ± 0.62 kg/m3
[1]; 308.15 K, x1 = 0.8256
  mass density: 1107.51 ± 0.76 kg/m3
[1]; 308.15 K, x1 = 0.9263
  mass density: 1109.54 ± 0.93 kg/m3
[1]; 308.15 K, x1 = 1
  mass density: 1110.73 ± 1.1 kg/m3
[1]; 318.15 K, x1 = 0.0248
  mass density: 1005.23 ± 0.61 kg/m3
[1]; 318.15 K, x1 = 0.0635
  mass density: 1025.75 ± 0.4 kg/m3
[1]; 318.15 K, x1 = 0.1377
  mass density: 1049.96 ± 0.29 kg/m3
[1]; 318.15 K, x1 = 0.2145
  mass density: 1064.98 ± 0.2 kg/m3
[1]; 318.15 K, x1 = 0.3381
  mass density: 1079.64 ± 0.23 kg/m3
[1]; 318.15 K, x1 = 0.4198
  mass density: 1085.98 ± 0.26 kg/m3
[1]; 318.15 K, x1 = 0.5599
  mass density: 1093.4 ± 0.39 kg/m3
[1]; 318.15 K, x1 = 0.6524
  mass density: 1096.81 ± 0.5 kg/m3
[1]; 318.15 K, x1 = 0.7369
  mass density: 1099.15 ± 0.61 kg/m3
[1]; 318.15 K, x1 = 0.8256
  mass density: 1101.41 ± 0.75 kg/m3
[1]; 318.15 K, x1 = 0.9263
  mass density: 1103.5 ± 0.92 kg/m3
[1]; 318.15 K, x1 = 1
  mass density: 1104.67 ± 1.1 kg/m3
[1]; 328.15 K, x1 = 0.0248
  mass density: 1000.09 ± 0.6 kg/m3
[1]; 328.15 K, x1 = 0.0635
  mass density: 1019.71 ± 0.39 kg/m3
[1]; 328.15 K, x1 = 0.1377
  mass density: 1043.71 ± 0.28 kg/m3
[1]; 328.15 K, x1 = 0.2145
  mass density: 1058.44 ± 0.2 kg/m3
[1]; 328.15 K, x1 = 0.3381
  mass density: 1073.2 ± 0.22 kg/m3
[1]; 328.15 K, x1 = 0.4198
  mass density: 1079.65 ± 0.26 kg/m3
[1]; 328.15 K, x1 = 0.5599
  mass density: 1087.19 ± 0.39 kg/m3
[1]; 328.15 K, x1 = 0.6524
  mass density: 1090.66 ± 0.49 kg/m3
[1]; 328.15 K, x1 = 0.7369
  mass density: 1093.24 ± 0.61 kg/m3
[1]; 328.15 K, x1 = 0.8256
  mass density: 1095.36 ± 0.74 kg/m3
[1]; 328.15 K, x1 = 0.9263
  mass density: 1097.51 ± 0.91 kg/m3
[1]; 328.15 K, x1 = 1
  mass density: 1098.69 ± 1 kg/m3
[1]; 338.15 K, x1 = 0.0248
  mass density: 994.12 ± 0.57 kg/m3
[1]; 338.15 K, x1 = 0.0635
  mass density: 1013.39 ± 0.38 kg/m3
[1]; 338.15 K, x1 = 0.1377
  mass density: 1036.7 ± 0.28 kg/m3
[1]; 338.15 K, x1 = 0.2145
  mass density: 1051.85 ± 0.2 kg/m3
[1]; 338.15 K, x1 = 0.3381
  mass density: 1066.76 ± 0.22 kg/m3
[1]; 338.15 K, x1 = 0.4198
  mass density: 1073.3 ± 0.25 kg/m3
[1]; 338.15 K, x1 = 0.5599
  mass density: 1081 ± 0.38 kg/m3
[1]; 338.15 K, x1 = 0.6524
  mass density: 1084.56 ± 0.49 kg/m3
[1]; 338.15 K, x1 = 0.7369
  mass density: 1087.14 ± 0.6 kg/m3
[1]; 338.15 K, x1 = 0.8256
  mass density: 1089.34 ± 0.73 kg/m3
[1]; 338.15 K, x1 = 0.9263
  mass density: 1091.43 ± 0.9 kg/m3
[1]; 338.15 K, x1 = 1
  mass density: 1092.73 ± 1 kg/m3
[1]; 348.15 K, x1 = 0.0248
  mass density: 987.53 ± 0.56 kg/m3
[1]; 348.15 K, x1 = 0.0635
  mass density: 1006.75 ± 0.39 kg/m3
[1]; 348.15 K, x1 = 0.1377
  mass density: 1030.27 ± 0.28 kg/m3
[1]; 348.15 K, x1 = 0.2145
  mass density: 1045.17 ± 0.2 kg/m3
[1]; 348.15 K, x1 = 0.3381
  mass density: 1060.28 ± 0.22 kg/m3
[1]; 348.15 K, x1 = 0.4198
  mass density: 1066.97 ± 0.25 kg/m3
[1]; 348.15 K, x1 = 0.5599
  mass density: 1074.85 ± 0.37 kg/m3
[1]; 348.15 K, x1 = 0.6524
  mass density: 1078.47 ± 0.48 kg/m3
[1]; 348.15 K, x1 = 0.7369
  mass density: 1081.08 ± 0.59 kg/m3
[1]; 348.15 K, x1 = 0.8256
  mass density: 1083.37 ± 0.72 kg/m3
[1]; 348.15 K, x1 = 0.9263
  mass density: 1085.62 ± 0.88 kg/m3
[1]; 348.15 K, x1 = 1
  mass density: 1086.83 ± 1 kg/m3
